Experimental data as given in paper PMC10263119, “WSD-0922, a novel brain-penetrant inhibitor of epidermal growth factor receptor, promotes survival in glioblastoma mouse models” (Neuro-Oncology Advances, 2023).

How the values were obtained:
Type in all cases: biochemical
EPHA1 = molecular target: T1, EPHA1 (Homo sapiens, UniProt P21709); assay: in vitro kinase inhibition, single concentration ([…]); conditions: read-out: %Inhibition (1 μM WSD-0922)
T1 sequence (P21709 26-976): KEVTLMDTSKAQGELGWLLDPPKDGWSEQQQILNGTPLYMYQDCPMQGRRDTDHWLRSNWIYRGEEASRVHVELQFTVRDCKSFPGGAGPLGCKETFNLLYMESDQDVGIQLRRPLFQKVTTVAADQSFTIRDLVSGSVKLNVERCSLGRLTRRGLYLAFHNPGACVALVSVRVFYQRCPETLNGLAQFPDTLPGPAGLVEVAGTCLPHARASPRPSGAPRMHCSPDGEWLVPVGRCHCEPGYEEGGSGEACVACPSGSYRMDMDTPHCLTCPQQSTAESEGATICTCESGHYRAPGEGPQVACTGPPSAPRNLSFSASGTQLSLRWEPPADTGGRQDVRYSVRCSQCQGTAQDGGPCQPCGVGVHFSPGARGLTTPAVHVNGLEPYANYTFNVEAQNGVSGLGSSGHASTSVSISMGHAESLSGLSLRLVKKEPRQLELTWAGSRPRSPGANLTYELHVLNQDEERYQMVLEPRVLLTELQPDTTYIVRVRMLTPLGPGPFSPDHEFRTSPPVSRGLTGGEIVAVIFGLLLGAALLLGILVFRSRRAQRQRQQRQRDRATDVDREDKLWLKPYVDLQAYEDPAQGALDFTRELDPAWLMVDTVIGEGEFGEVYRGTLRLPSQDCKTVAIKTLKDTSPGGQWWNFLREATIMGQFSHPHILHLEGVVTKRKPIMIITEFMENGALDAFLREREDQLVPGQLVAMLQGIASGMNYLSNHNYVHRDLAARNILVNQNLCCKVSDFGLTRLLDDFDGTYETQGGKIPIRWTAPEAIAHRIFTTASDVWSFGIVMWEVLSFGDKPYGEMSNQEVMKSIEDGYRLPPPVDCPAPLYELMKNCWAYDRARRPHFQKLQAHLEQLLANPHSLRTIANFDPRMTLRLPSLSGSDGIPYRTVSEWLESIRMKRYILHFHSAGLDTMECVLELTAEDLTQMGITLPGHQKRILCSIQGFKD

HCK = HCK (Homo sapiens, UniProt P08631); assay: as above; conditions: read-out: %Inhibition (1 μM WSD-0922)
Sequence of HCK (P08631 2-526): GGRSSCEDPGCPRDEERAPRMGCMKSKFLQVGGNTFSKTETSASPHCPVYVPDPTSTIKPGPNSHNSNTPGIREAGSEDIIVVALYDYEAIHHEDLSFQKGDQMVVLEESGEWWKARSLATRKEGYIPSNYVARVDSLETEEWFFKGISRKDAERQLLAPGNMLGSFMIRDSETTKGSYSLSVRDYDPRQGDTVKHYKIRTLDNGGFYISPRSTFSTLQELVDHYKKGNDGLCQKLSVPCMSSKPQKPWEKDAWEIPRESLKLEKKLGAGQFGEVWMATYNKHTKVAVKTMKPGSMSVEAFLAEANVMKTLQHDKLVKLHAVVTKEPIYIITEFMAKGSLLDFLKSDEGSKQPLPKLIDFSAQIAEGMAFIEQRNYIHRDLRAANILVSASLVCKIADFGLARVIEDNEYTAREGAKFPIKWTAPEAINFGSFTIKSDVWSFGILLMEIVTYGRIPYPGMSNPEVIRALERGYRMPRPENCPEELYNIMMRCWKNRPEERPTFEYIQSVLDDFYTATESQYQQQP

LCK = LCK (Homo sapiens, UniProt P06239); assay: as above; conditions: read-out: %Inhibition (1 μM WSD-0922)
Sequence of LCK (P06239 2-509): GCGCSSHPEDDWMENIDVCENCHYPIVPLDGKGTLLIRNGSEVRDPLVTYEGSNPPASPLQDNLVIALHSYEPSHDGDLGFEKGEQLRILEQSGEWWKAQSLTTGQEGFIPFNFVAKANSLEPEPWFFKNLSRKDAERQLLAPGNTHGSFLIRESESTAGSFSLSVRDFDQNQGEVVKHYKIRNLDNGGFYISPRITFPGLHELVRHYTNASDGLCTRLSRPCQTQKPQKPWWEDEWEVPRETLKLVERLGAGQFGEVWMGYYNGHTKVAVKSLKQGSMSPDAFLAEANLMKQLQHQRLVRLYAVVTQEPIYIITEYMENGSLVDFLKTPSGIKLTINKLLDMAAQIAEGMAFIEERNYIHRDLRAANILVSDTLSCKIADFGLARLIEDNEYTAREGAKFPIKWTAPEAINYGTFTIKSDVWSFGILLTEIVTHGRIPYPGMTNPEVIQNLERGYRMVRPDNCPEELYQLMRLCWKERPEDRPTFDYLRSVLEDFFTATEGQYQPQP

SRC = SRC (Homo sapiens, UniProt P12931); assay: as above; conditions: read-out: %Inhibition (1 μM WSD-0922)
Sequence of SRC (P12931 2-536): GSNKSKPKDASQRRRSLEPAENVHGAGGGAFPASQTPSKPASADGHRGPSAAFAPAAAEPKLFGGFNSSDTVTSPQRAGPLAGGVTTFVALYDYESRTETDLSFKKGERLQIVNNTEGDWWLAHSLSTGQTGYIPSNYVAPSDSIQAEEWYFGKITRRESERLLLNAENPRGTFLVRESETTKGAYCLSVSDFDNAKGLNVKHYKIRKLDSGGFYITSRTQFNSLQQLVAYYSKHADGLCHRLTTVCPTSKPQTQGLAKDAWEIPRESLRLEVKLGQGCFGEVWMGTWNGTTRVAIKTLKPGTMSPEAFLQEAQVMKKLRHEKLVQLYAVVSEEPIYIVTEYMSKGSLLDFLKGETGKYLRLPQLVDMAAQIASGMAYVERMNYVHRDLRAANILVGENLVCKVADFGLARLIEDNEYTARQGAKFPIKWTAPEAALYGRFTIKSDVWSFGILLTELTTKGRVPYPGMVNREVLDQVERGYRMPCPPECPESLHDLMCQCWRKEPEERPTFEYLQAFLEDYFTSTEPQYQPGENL

LYNa = molecular target: T2, LYNa (Homo sapiens, UniProt P07948); assay: as above; conditions: read-out: %Inhibition (1 μM WSD-0922)
T2 construct: gene LYN
T2 sequence (P07948 2-512): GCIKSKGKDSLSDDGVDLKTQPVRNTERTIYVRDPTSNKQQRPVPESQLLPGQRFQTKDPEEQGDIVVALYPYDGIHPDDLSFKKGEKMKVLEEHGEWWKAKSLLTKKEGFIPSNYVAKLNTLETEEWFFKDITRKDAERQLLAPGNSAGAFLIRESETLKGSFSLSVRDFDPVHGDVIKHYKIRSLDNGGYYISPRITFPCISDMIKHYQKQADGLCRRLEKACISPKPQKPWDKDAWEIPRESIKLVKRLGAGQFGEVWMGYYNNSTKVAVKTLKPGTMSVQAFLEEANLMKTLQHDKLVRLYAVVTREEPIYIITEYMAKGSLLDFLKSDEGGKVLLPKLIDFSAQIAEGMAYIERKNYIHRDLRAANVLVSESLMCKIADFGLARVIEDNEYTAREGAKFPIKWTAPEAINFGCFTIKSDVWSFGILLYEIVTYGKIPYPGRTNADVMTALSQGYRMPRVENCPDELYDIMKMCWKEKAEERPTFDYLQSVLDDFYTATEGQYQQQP

EGFR = EGFR (Homo sapiens, UniProt P00533); assay: cell-free in vitro kinase inhibition assay; kinetic data
Sequence of EGFR (P00533 25-1210): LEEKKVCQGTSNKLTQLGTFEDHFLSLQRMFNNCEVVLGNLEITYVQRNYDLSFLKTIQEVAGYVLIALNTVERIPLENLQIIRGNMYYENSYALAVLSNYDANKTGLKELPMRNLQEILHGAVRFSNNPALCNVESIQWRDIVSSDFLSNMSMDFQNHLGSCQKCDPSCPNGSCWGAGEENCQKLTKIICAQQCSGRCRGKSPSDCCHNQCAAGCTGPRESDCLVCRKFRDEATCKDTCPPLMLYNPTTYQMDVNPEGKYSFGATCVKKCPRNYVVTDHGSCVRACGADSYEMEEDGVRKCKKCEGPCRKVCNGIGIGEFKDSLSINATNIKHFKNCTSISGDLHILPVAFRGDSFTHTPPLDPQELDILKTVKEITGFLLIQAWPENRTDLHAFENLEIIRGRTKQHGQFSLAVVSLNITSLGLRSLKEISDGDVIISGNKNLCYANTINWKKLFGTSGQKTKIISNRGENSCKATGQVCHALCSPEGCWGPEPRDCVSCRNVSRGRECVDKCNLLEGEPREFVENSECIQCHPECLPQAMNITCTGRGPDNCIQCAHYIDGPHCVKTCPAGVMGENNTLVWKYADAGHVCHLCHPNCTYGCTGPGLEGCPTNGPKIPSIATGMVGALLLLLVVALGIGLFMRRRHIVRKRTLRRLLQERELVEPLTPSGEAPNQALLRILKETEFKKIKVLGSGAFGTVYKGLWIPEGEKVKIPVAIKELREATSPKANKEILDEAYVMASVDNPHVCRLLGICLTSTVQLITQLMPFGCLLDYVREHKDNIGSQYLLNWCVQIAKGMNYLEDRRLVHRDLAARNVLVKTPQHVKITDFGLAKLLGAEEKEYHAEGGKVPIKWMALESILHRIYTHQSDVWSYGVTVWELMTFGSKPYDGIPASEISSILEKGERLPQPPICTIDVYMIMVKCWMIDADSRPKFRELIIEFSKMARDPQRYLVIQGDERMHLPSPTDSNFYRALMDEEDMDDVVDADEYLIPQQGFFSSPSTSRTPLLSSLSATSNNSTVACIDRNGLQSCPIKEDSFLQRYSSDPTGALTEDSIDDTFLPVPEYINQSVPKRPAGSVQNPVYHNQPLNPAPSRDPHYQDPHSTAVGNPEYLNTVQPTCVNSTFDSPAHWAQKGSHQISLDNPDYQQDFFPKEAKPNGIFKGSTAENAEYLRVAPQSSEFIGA

HER4 = molecular target: T3, HER4 (Homo sapiens, UniProt Q15303); assay: in vitro kinase inhibition, single concentration ([…]); conditions: read-out: %Inhibition (1 μM WSD-0922)
T3 construct: gene ERBB4
T3 sequence (Q15303 26-1308): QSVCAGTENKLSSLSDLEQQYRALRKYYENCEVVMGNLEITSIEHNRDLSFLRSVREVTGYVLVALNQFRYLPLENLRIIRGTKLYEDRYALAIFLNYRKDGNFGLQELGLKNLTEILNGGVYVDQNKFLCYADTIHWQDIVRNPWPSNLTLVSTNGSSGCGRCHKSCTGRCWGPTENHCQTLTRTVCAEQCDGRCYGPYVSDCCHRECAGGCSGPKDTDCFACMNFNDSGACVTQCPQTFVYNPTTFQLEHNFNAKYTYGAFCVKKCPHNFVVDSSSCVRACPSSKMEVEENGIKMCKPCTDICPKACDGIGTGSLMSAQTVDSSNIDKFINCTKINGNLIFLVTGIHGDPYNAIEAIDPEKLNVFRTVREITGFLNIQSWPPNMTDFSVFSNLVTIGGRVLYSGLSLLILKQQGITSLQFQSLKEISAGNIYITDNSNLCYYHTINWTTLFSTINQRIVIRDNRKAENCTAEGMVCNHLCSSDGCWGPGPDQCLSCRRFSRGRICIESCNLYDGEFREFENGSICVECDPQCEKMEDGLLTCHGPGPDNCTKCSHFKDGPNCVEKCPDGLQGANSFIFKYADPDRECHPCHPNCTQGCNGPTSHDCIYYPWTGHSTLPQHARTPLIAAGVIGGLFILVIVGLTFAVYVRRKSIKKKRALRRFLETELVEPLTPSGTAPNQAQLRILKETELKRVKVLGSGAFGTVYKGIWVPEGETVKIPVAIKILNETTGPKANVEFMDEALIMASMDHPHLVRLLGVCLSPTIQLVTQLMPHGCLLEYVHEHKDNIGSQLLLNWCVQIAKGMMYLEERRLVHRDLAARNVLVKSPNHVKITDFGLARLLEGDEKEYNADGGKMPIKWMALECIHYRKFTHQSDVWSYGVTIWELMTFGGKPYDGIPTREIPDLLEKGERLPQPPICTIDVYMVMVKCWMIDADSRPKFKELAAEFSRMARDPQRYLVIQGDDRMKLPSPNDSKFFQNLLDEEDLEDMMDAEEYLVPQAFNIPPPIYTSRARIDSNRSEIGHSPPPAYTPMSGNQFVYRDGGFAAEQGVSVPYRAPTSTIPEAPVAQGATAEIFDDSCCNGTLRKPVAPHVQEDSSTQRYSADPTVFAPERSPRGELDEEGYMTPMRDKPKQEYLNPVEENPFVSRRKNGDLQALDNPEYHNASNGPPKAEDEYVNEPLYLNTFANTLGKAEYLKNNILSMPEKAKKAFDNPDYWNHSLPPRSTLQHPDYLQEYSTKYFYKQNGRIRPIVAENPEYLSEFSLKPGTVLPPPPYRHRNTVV

## C#Cc1cccc(Nc2ncnc3cc(OC)c(O[C@@H]4CCN(C)CC4(F)F)cc23)c1F [WSD-0922]
EPHA1
  inhibition at 1 µM: 55.4%
HCK
  inhibition at 1 µM: 49.7%
LCK
  inhibition at 1 µM: 46.2%
SRC
  inhibition at 1 µM: 39.5%
LYNa
  inhibition at 1 µM: 70.9%
EGFR
  IC50: 0.056 nM
HER4
  inhibition at 1 µM: 69.8%
